Results from patent publication US20230114728A1 (Venatorx Pharmaceuticals, Inc., priority 2019, published 2023).
Values after ≈ are worked out from the molar mass of the structure shown.

Legend:
E. coli K12 PBP3 = target: T1, E. coli K12 PBP3 (Escherichia coli, UniProt P0AD68); assay: biochemical; format: binding
T1 construct: made in house
Summary of the method: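 Fluorescence polarization (ex 490/em 520 nm) competition of inhibitors against Bocillin-FL at 0.1 μM, read up to 60 min. Final PBP levels: E. coli PBP3 1.5 μM; A. baumannii PBP2 2.5 μM, PBP3 0.2 μM in Tris pH 8.0/NaCl/glycerol/Tween 20; N. gonorrhoeae PBP2 […] in Hepes pH 8.0/NaCl/glycerol. EC50 = concentration halving PBP-bound Bocillin-FL.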

P. aeruginosa PBP3 = target: T2, P. aeruginosa PBP3 (Pseudomonas aeruginosa, UniProt G3XD46); assay: Bocillin-FL fluorescence polarization competition binding assay, P. aeruginosa PBP3; conditions: fluorescence polarization competition binding assay using Bocillin-FL
T2 construct: made in house
Summary of the method: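 Binding of boronic acid inhibitors to purified Pseudomonas aeruginosa (PA01) PBP3 was measured by fluorescence polarization competition with Bocillin-FL, a fluorescent penicillin V. Reactions of 80 μl contained 0.75 μM PBP3 and 0.1 μM Bocillin-FL in 50 mM Hepes (pH 8.0), 300 mM NaCl and 5% (v/v) glycerol, in black 384-well plates. FP (Excitation 490 nm, Emission 520 nm) was read for up to 60 minutes. EC50 is the concentration that halves PBP-bound Bocillin-FL.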

[1] = system: N. gonorrhoeae ATCC 49226; assay: Liquid broth MIC in Fastidious broth; format: cell-based; conditions: Neisseria gonorrhoeae, ATCC49226; N. gonorrhoeae strain ATCC 49226; Fastidious broth; read-out: Minimum Inhibitory Concentration, N. gonorrhoeae ATCC 49226
Summary of the method: (§1)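 Colonies were swabbed from chocolate agar after 24 h growth and standardised by optical density at 600 nm. Compounds were serially diluted twofold in Fastidious broth, and bacteria added to give 5×10^5 CFU/mL. After about 24 h at 36 °C in 5% CO2, the lowest concentration allowing under 10% growth was taken as MIC.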

N. gonorrhoeae FA1090 = assay: Liquid broth MIC in Fastidious broth; format: cell-based; conditions: Neisseria gonorrhoeae; N. gonorrhoeae strain FA1090; Fastidious broth; read-out: Minimum Inhibitory Concentration, N. gonorrhoeae FA1090
Summary of the method: as §1

N. gonorrhoeae H041 = assay: Liquid broth MIC in Fastidious broth; format: cell-based; conditions: Neisseria gonorrhoeae, H041, read-out: Minimum Inhibitory Concentration, N. gonorrhoeae H041
Summary of the method: (§2)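 Broth microdilution in Fastidious broth with 2-fold compound series; inoculum from 24 h chocolate agar colonies, 5×10^5 CFU/mL start. Incubated ~24 hours at 36° C, 5% CO2. MIC read visually as lowest concentration giving <10% growth versus full-growth wells; strains carry mosaic PBP2.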

N. gonorrhoeae WHO G = assay: Liquid broth MIC in Fastidious broth; format: cell-based; conditions: Neisseria gonorrhoeae; N. gonorrhoeae strain WHO G; Fastidious broth; read-out: Minimum Inhibitory Concentration, N. gonorrhoeae WHO G
Summary of the method: as §1

N. gonorrhoeae WHO K = assay: Liquid broth MIC in Fastidious broth; format: cell-based; conditions: Neisseria gonorrhoeae, read-out: Minimum Inhibitory Concentration, N. gonorrhoeae WHO K
Summary of the method: as §2

N. gonorrhoeae WHO L = assay: Liquid broth MIC in Fastidious broth; format: cell-based; conditions: Neisseria gonorrhoeae; N. gonorrhoeae strain WHO L; Fastidious broth; read-out: Minimum Inhibitory Concentration, N. gonorrhoeae WHO L
Summary of the method: as §1

T2 sequence (G3XD46 whole entry): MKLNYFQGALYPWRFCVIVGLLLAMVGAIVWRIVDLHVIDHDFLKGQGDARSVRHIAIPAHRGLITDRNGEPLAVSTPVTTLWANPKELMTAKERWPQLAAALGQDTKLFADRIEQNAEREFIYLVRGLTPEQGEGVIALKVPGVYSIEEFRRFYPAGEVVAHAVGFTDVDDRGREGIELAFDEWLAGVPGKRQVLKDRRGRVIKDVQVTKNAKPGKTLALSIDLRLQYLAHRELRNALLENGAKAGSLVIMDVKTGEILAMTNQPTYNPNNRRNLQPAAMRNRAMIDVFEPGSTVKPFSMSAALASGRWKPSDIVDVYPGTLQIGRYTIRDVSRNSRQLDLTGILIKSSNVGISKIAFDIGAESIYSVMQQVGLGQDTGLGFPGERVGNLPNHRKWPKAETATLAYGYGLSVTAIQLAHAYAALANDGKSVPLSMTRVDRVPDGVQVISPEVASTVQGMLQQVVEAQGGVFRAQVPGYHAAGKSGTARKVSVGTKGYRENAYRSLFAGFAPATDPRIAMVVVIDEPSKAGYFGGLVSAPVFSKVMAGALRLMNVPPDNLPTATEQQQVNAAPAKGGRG
T1 sequence (P0AD68 1-577): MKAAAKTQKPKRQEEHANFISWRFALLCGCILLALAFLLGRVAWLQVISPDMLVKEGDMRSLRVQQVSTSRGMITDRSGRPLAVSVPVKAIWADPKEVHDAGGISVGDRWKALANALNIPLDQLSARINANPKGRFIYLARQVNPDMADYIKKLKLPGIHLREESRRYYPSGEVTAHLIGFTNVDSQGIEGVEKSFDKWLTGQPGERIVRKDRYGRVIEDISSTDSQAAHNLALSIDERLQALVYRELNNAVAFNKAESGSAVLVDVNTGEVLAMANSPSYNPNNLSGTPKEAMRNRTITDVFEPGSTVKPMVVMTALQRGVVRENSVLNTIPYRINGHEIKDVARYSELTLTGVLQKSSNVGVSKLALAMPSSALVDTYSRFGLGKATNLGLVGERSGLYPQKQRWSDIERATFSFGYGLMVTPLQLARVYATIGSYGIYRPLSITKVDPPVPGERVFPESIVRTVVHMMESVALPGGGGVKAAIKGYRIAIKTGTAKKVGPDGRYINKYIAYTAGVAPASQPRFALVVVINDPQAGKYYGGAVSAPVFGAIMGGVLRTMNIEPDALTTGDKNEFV

SMILES	EC50 (E. coli K12 PBP3) [µM]	P. aeruginosa PBP3 Potency (P. aeruginosa PBP3)	MIC [1] [µg/mL]	MIC (N. gonorrhoeae FA1090) [µg/mL]	MIC (N. gonorrhoeae H041) [µg/mL]	MIC (N. gonorrhoeae WHO G) [µg/mL]	MIC (N. gonorrhoeae WHO K) [µg/mL]	MIC (N. gonorrhoeae WHO L) [µg/mL]
N=C(N)NCCN1CCN(C(=O)NC(C(=O)N[C@H]2Cc3ccc(F)c(C(=O)O)c3OB2O)c2ncc(O)cc2F)C(=O)C1=O (stereo partly drawn) [Example 51, (3R)-7-fluoro-3-(2-(3-fluoro-5-hydroxypyridin-2-yl)-2-(4-(2-guanidinoethyl)-2,3-dioxopiperazine-1-carboxamido)acetamido)-2-hydroxy-3,4-dihydro-2H-benzo[e][1,2]oxaborinine-8-carboxylic acid]	30 to 500	D (D represents a potency <10 μM)	4 to 8 (≈ 6.47 to 12.9 µM)	4 to 8 (≈ 6.47 to 12.9 µM)	> 64	4 to 8 (≈ 6.47 to 12.9 µM)	> 64	> 64
CCN1CCN(C(=O)NC(C(=O)N[C@H]2Cc3cccc(C(=O)O)c3OB2O)c2cccc(NC(=O)c3cncnc3)c2)C(=O)C1=O (stereo partly drawn) [Example 96, (3R)-3-(2-(4-ethyl-2,3-dioxopiperazine-1-carboxamido)-2-(3-(pyrimidine-5-carboxamido)phenyl)acetamido)-2-hydroxy-3,4-dihydro-2H-benzo[e][1,2]oxaborinine-8-carboxylic acid]	30 to 500	D (D represents a potency <10 μM)	> 64	4 to 8 (≈ 6.36 to 12.7 µM)	> 64	16 to 32 (≈ 25.4 to 50.8 µM)	> 64	> 64
NC(C(=O)N[C@H]1Cc2ccc(F)c(C(=O)O)c2OB1O)c1c(F)cc(O)c(O)c1Cl (stereo partly drawn) [Example 25, (3R)-3-(2-amino-2-(2-chloro-6-fluoro-3,4-dihydroxyphenyl)acetamido)-7-fluoro-2-hydroxy-3,4-dihydro-2H-benzo[e][1,2]oxaborinine-8-carboxylic acid]	30 to 500	B (B represents a potency between 30 μM and 500 μM inclusive)	> 64	> 64	> 64	> 64	> 64	> 64
CCN1CCN(C(=O)NC(C(=O)N[C@H]2Cc3cccc(C(=O)O)c3OB2O)c2cc(O)cc(O)c2)C(=O)C1=O (mixture of isomers) [Example 79, (3R)-3-(2-(3,5-dihydroxyphenyl)-2-(4-ethyl-2,3-dioxopiperazine-1-carboxamido)acetamido)-2-hydroxy-3,4-dihydro-2H-benzo[e][1,2]oxaborinine-8-carboxylic acid]	30 to 500	D (D represents a potency <10 μM)	1 to 2	< 0.125	16 to 32	1 to 2	16 to 32	16 to 32
CCN1CCN(C(=O)NC(C(=O)N[C@H]2Cc3cccc(C(=O)O)c3OB2O)c2ccc(N)c(F)c2)C(=O)C1=O (stereo partly drawn) [Example 50, (3R)-3-(2-(4-amino-3-fluorophenyl)-2-(4-ethyl-2,3-dioxopiperazine-1-carboxamido)acetamido)-2-hydroxy-3,4-dihydro-2H-benzo[e][1,2]oxaborinine-8-carboxylic acid]	< 30	D (D represents a potency <10 μM)	1 to 2 (≈ 1.85 to 3.69 µM)	< 0.125	16 to 32 (≈ 29.6 to 59.1 µM)	1 to 2 (≈ 1.85 to 3.69 µM)	16 to 32 (≈ 29.6 to 59.1 µM)	16 to 32 (≈ 29.6 to 59.1 µM)
CCN1CCN(C(=O)NC(C(=O)N[C@H]2Cc3cccc(C(=O)O)c3OB2O)c2ccc(O)c(NS(C)(=O)=O)c2)C(=O)C1=O (stereo partly drawn) [Example 22, (3R)-3-(2-(4-ethyl-2,3-dioxopiperazine-1-carboxamido)-2-(4-hydroxy-3-(methylsulfonamido)phenyl)acetamido)-2-hydroxy-3,4-dihydro-2H-benzo[e][1,2]oxaborinine-8-carboxylic acid]	< 30	D (D represents a potency <10 μM)	> 64	1 to 2 (≈ 1.62 to 3.24 µM)	> 64	16 to 32 (≈ 25.9 to 51.8 µM)	> 64	> 64
NCCN1CCN(C(=O)N[C@H](C(=O)N[C@H]2Cc3cccc(C(=O)O)c3OB2O)c2ccc(O)cc2F)C(=O)C1=O (single isomer, unassigned) [Example 88]	30 to 500	C (C represents a potency between 10 and 30 μM)	> 64	4 to 8 (≈ 7.18 to 14.4 µM)	> 64	16 to 32 (≈ 28.7 to 57.4 µM)	> 64	> 64
NCCN1CCN(C(=O)NC(C(=O)N[C@H]2Cc3cccc(C(=O)O)c3OB2O)c2cc(Cl)c(O)cc2F)C(=O)C1=O (stereo partly drawn) [Example 87, (3R)-3-(2-(4-(2-aminoethyl)-2,3-dioxopiperazine-1-carboxamido)-2-(5-chloro-2-fluoro-4-hydroxyphenyl)acetamido)-2-hydroxy-3,4-dihydro-2H-benzo[e][1,2]oxaborinine-8-carboxylic acid]	< 30	D (D represents a potency <10 μM)	16 to 32 (≈ 27 to 54.1 µM)	0.25 to 0.5 (≈ 0.422 to 0.845 µM)	> 64	4 to 8 (≈ 6.76 to 13.5 µM)	> 64	16 to 32 (≈ 27 to 54.1 µM)
NCCN1CCN(C(=O)N[C@H](C(=O)N[C@H]2Cc3cccc(C(=O)O)c3OB2O)c2ccc(O)cc2Cl)C(=O)C1=O (single isomer, unassigned) [Example 85]	30 to 500	C (C represents a potency between 10 and 30 μM)	> 64	4 to 8 (≈ 6.97 to 13.9 µM)	> 64	> 64	> 64	> 64
NCCCN1CCN(C(=O)N[C@@H](C(=O)N[C@H]2Cc3ccc(F)c(C(=O)O)c3OB2O)c2c(F)cc(O)c(O)c2Cl)C(=O)C1=O (single isomer, unassigned) [Example 27]	< 30	D (D represents a potency <10 μM)	> 64	16 to 32 (≈ 25 to 50 µM)	> 64	16 to 32 (≈ 25 to 50 µM)	> 64	> 64
CCN1CCN(C(=O)NC(C(=O)N[C@H]2Cc3cccc(C(=O)O)c3OB2O)c2cccc(NC(=O)c3ccc(O)c(O)c3Cl)c2)C(=O)C1=O (stereo partly drawn) [Example 73, (3R)-3-(2-(3-(2-chloro-3,4-dihydroxybenzamido)phenyl)-2-(4-ethyl-2,3-dioxopiperazine-1-carboxamido)acetamido)-2-hydroxy-3,4-dihydro-2H-benzo[e][1,2]oxaborinine-8-carboxylic acid]	< 30	D (D represents a potency <10 μM)	> 64	1 to 2 (≈ 1.44 to 2.88 µM)	> 64	16 to 32 (≈ 23.1 to 46.1 µM)	> 64	> 64
NC(=O)c1ccc(C(NC(=O)N2CCN(CCF)C(=O)C2=O)C(=O)N[C@H]2Cc3cccc(C(=O)O)c3OB2O)cc1O (stereo partly drawn) [Example 46, (3R)-3-(2-(4-carbamoyl-3-hydroxyphenyl)-2-(4-(2-fluoroethyl)-2,3-dioxopiperazine-1-carboxamido)acetamido)-2-hydroxy-3,4-dihydro-2H-benzo[e][1,2]oxaborinine-8-carboxylic acid]	< 30	D (D represents a potency <10 μM)	1 to 2 (≈ 1.71 to 3.42 µM)	< 0.125	16 to 32 (≈ 27.3 to 54.7 µM)	0.25 to 0.5 (≈ 0.427 to 0.854 µM)	16 to 32 (≈ 27.3 to 54.7 µM)	16 to 32 (≈ 27.3 to 54.7 µM)
CCN1CCN(C(=O)NC(C(=O)N[C@H]2Cc3ccc(F)c(C(=O)O)c3OB2O)c2nc(N)sc2F)C(=O)C1=O (stereo partly drawn) [Example 18, (3R)-3-(2-(2-amino-5-fluorothiazol-4-yl)-2-(4-ethyl-2,3-dioxopiperazine-1-carboxamido)acetamido)-7-fluoro-2-hydroxy-3,4-dihydro-2H-benzo[e][1,2]oxaborinine-8-carboxylic acid]	< 30	D (D represents a potency <10 μM)	4 to 8 (≈ 7.06 to 14.1 µM)	1 to 2 (≈ 1.77 to 3.53 µM)	16 to 32 (≈ 28.3 to 56.5 µM)	4 to 8 (≈ 7.06 to 14.1 µM)	16 to 32 (≈ 28.3 to 56.5 µM)	16 to 32 (≈ 28.3 to 56.5 µM)
